Laboratory results reported in patent US7354922B2, “Bridged ring NK1 antagonists” (Schering Corporation, priority 2004, dated 2008).

target: NK1 receptor (Homo sapiens, UniProt P25103); assay: NK1 receptor binding (inhibition of Substance P binding, Ki by Chang-Prusoff equation)
Source text: The in vitro and in vivo NK1, NK2 and NK3 activities of the compounds of Formula (I) can be determined by various procedures known in the art, such as a test for their ability to inhibit the activity of the NK1 agonist Substance P. The percent inhibition of neurokinin agonist activity is the difference between the percent of maximum specific binding (“MSB”) and 100%. The percent of MSB is defined by the following equation, wherein “dpm” represents “disintegrations per minute”:
[formula] The concentration at which the compound produces 50% inhibition of binding is then used to determine an inhibition constant (“Ki”) using the Chang-Prusoff equation.
The activities (potencies) for the compounds of the invention are determined by measuring their Ki values. […] Even more preferred are compounds having average Ki values of from 0.05 nM to about 5 nM for the NK1 receptor. Especially preferred compounds have NK1 average Ki values of from 0.05 nM to about 1 nM. Even more especially preferred compounds have NK1 average Ki values of from 0.05 nM to about 0.2 nM.

Chain of NK1 receptor (P25103 whole entry, species assumed): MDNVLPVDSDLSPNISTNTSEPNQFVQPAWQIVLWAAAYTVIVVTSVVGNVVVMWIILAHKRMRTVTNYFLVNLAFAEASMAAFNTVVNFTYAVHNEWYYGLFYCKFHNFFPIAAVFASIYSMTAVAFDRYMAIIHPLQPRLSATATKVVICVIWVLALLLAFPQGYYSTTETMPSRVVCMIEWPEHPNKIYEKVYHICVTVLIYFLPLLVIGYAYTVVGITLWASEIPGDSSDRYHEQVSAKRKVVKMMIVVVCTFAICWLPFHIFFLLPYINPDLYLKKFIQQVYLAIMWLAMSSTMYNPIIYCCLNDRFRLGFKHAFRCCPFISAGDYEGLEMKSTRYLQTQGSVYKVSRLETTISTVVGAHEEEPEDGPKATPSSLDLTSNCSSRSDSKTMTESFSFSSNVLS

Structure (SMILES) | Ki
COC[C@]12CC[C@@](CO[C@H](C)c3cc(C(F)(F)F)cc(C(F)(F)F)c3)(c3ccccc3)N(CC(=O)N1)C2 [Example 12] | 0.13 nM
C[C@@H](OC[C@@]1(c2ccccc2)CC[C@]2(COC(N)=O)CN1CC(=O)N2)c1cc(C(F)(F)F)cc(C(F)(F)F)c1 [Example 15] | 0.09 nM
C[C@@H](OC[C@@]1(c2ccccc2)CC[C@]2(Cn3cnnn3)CN1CC(=O)N2)c1cc(C(F)(F)F)cc(C(F)(F)F)c1 [Example 20] | 0.15 nM
C[C@@H](OC[C@@]1(c2ccccc2)CC[C@]2(CN3CCCCC3=O)CN1CC(=O)N2)c1cc(C(F)(F)F)cc(C(F)(F)F)c1 [Example 30] | 0.11 nM
CC(C)=NOC[C@]12CC[C@@](CO[C@H](C)c3cc(C(F)(F)F)cc(C(F)(F)F)c3)(c3ccccc3)N(CC(=O)N1)C2 [Example 33] | 0.13 nM
CSC[C@]12CC[C@@](CO[C@H](C)c3cc(C(F)(F)F)cc(C(F)(F)F)c3)(c3ccccc3)N(CC(=O)N1)C2 [Example 34] | 0.07 nM
C[C@@H](OC[C@@]1(c2ccccc2)CC[C@]2(CNS(C)(=O)=O)CN1CC(=O)N2)c1cc(C(F)(F)F)cc(C(F)(F)F)c1 [Example 38] | 0.12 nM
C[C@@H](OC[C@@]1(c2ccccc2)CC[C@@]2(NC(N)=O)CCCN1C2)c1cc(C(F)(F)F)cc(C(F)(F)F)c1 [Example 47] | 0.12 nM
C[C@@H](OC[C@@]1(c2ccccc2)CC[C@@]23COCCN2C(=O)CN1C3)c1cc(C(F)(F)F)cc(C(F)(F)F)c1 [Example 51] | 0.12 nM

Continued, values first:

Ki | Structure (SMILES)
0.15 nM | C[C@@H](OC[C@@]1(c2ccccc2)CC[C@]2(CO)CN1CC(=O)N2)c1cc(C(F)(F)F)cc(C(F)(F)F)c1 [Example 3a]
0.11 nM | C[C@@H](OC[C@@]1(c2ccccc2)CC[C@@H]2CN1CCN2)c1cc(C(F)(F)F)cc(C(F)(F)F)c1 [Example 4]
0.1 nM | C[C@@H](OC[C@@]1(c2ccccc2)CC[C@@H]2CN1CCN2C(N)=O)c1cc(C(F)(F)F)cc(C(F)(F)F)c1 [Example 5]
0.12 nM | C[C@@H](OC[C@@]1(c2ccccc2)CC[C@]2(CC#N)CN1CC(=O)N2)c1cc(C(F)(F)F)cc(C(F)(F)F)c1 [Example 8]
0.16 nM | C[C@@H](OC[C@@]1(c2ccccc2)CC[C@]2(CC(N)=O)CN1CC(=O)N2)c1cc(C(F)(F)F)cc(C(F)(F)F)c1 [Example 16]
0.11 nM | C[C@@H](OC[C@@]1(c2ccccc2)CC[C@]2(CNC3CC3)CN1CC(=O)N2)c1cc(C(F)(F)F)cc(C(F)(F)F)c1 [Example 32]
0.16 nM | C[C@@H](OC[C@@]1(c2ccccc2)CC[C@]2(CO)CN1CC(=O)O2)c1cc(C(F)(F)F)cc(C(F)(F)F)c1 [Example 49]
0.12 nM | C[C@@H](OC[C@@]1(c2ccccc2)CC[C@]2(CO)CN1CCN2)c1cc(C(F)(F)F)cc(C(F)(F)F)c1 [Example 57]
